# Assay results reported in patent publication US6399660B1, “Aminoethylphenoxyacetic acid derivatives and drugs for pain remission and calculi removal promotion in urinary lithiasis” (Kissei Pharmaceutical Co., Ltd., priority 1997, dated 2002).
# What was measured:
# Format in all cases: cell-based
# [1] = biological target: T1, β1-Adrenoceptor (Rattus norvegicus, UniProt P18090); assay: β1-Adrenoceptor stimulating effects: heart rate increase in isolated rat atrium (Magnus method); settings: isolated atria of male SD rats
# T1 construct: Atria of male SD rats (350 to 400 g in body weight) were isolated; from tissue; host or cells: isolated atria of male SD rats
# T1 sequence (P18090 whole entry): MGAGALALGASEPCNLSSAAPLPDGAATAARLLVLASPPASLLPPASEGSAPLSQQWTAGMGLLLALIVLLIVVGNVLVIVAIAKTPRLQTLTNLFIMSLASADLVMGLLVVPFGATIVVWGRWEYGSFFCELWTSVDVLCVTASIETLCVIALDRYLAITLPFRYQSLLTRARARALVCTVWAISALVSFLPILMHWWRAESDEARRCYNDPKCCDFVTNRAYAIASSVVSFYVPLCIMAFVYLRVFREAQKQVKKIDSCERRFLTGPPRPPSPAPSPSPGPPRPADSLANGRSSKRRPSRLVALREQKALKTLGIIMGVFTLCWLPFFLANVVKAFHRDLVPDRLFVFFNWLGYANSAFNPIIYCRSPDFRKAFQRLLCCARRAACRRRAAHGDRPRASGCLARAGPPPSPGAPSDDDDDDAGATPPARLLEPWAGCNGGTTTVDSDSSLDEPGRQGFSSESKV
# Procedure: Atria of male SD rats (350 to 400 g in body weight) were isolated and the experiment was conducted according to the Magnus methods. The preparations with a tension of 1 g were exposed to Krebs-Henseleit solution maintained at 37° C. and gassed with a mixture of 95% oxygen and 5% carbon dioxide. The cardiac contractility was isometrically measured with a force-displacement transducer and recorded by a rectigraph. The drug efficacy was evaluated as the molar concentration required to produce 20 beats/minute increment of the heart rate (i.e., ECΔ20 value).
# [2] = biological target: T2, β2-Adrenoceptor (Rattus norvegicus, UniProt P10608); assay: β2-Adrenoceptor stimulating effects: inhibition of spontaneous contractions of isolated pregnant rat uterus (Magnus method); settings: isolated uterus of pregnant SD rats (day 21), cumulative addition every 5 minutes, read-out: EC50 value (concentration required to produce 50% inhibition of uterine contractions), Test Example 1
# T2 construct: Uteri of pregnant SD rats (pregnancy day 21) were isolated and longitudinal smooth muscle strips; from tissue; host or cells: longitudinal smooth muscle strips of pregnant SD rat uterus (day 21)
# T2 sequence (P10608 whole entry): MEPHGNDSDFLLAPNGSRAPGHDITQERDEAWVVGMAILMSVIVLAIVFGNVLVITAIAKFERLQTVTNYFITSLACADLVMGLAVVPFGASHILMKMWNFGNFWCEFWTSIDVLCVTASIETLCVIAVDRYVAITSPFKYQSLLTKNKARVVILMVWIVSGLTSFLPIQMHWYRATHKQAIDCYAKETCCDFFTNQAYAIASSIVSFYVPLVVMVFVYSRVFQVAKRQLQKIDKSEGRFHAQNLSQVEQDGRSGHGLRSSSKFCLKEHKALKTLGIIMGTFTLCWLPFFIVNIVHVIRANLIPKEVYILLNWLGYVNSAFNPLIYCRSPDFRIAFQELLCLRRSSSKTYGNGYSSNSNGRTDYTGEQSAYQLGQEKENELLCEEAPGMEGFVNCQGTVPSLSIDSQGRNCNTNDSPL
# Procedure: Uteri of pregnant SD rats (pregnancy day 21) were isolated and longitudinal smooth muscle strips of approximately 15 mm in length and approximately 5 mm in width free from the basal plate were prepared. The experiment was conducted according to the Magnus method. The preparations with a tension of 1 g were exposed to Locke-Ringer solution maintained at 37° C. and gassed with a mixture of 95% oxygen and 5% carbon dioxide. Spontaneous contractions of myometrium were isometrically measured with a force-displacement transducer and recorded by a rectigraph. The drug was cumulatively added to the Magnus bath every 5 minutes. The drug efficacy was evaluated as the concentration of the drug required to produce 50% of the inhibition of uterine contractions (i.e., EC50 value) by comparing the sum of uterine contractions during 5 minutes after the addition of the drug with the sum of uterine contractions during 5 minutes before the addition of the drug (100%).
# [3] = biological target: β3-Adrenoceptor (Mustela putorius furo, UniProt M3YEU4); assay: β3-Adrenoceptor stimulating effects: inhibition of spontaneous contractions of isolated ferret ureter (Magnus method); settings: isolated male ferret ureter, cumulative addition every 3 minutes, read-out: EC50 value (concentration required to produce 50% inhibition of ureter contractions), Test Example 2
# β3-Adrenoceptor, sequence (M3YEU4 entry or part of it): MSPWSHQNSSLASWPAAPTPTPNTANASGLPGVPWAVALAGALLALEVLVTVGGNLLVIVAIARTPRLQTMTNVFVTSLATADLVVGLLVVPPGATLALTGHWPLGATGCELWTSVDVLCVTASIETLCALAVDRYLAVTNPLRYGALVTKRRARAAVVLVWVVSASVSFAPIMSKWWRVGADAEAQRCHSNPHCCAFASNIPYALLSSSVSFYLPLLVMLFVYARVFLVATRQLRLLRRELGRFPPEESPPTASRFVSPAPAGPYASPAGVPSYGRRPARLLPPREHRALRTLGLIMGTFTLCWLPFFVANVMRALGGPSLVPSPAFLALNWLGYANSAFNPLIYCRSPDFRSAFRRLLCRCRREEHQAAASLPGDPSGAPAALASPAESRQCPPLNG
# Procedure: After removal of connective tissue, longitudinal smooth muscle strips of approximately 20 mm in length were prepared. The experiment was conducted according to the Magnus method. The preparations with a tension of 0.5 g were exposed to Krebs-Henseleit solution maintained at 37° C. and gassed with a mixture of 95% oxygen and 5% carbon dioxide. Spontaneous contractions of ureters were isometrically measured with a force-displacement transducer and recorded by a rectigraph. The drug was cumulatively added to the Magnus bath every 3 minutes.
SMILES,"ECΔ20 value (molar concentration required to produce 20 beats/minute increment of the heart rate), Test Example 3 [1]",EC50 [2],EC50 [3],"ECΔ20 value (molar concentration required to produce 20 beats/minute increment of the heart rate), Test Example 3 ([1]; listed as 2-[4-[2-[[(1S,2R)-2-hydroxy-2-(4-hydroxyphenyl)-1-methylethyl]amino]ethyl]phenox)"
"C[C@H](NCCc1ccc(OCC(=O)OCc2ccccc2)cc1F)[C@H](O)c1ccc(O)cc1.Cl [Compound 7, Benzyl 2-[3-fluoro-4-[2-[[(1S,2R)-2-hydroxy-2-(4-hydroxyphenyl)-1-methylethyl]amino]ethyl]phenoxy]acetate hydrochloride]",300 nM,3.3 nM,–,–
"C[C@H](NCCc1ccc(OCC(=O)O)cc1Cl)[C@H](O)c1ccc(O)cc1 [Compound 8, 2-[3-Chloro-4-[2-[[(1S,2R)-2-hydroxy-2-(4-hydroxyphenyl)-1-methyl-ethyl]amino]ethyl]phenoxy]acetic acid]",110 nM,13 nM,–,–
"C[C@H](NCCc1ccc(OCC(=O)O)cc1F)[C@H](O)c1ccc(O)cc1 [Compound 10, 2-[3-Fluoro-4-[2-[[(1S,2R)-2-hydroxy-2-(4-hydroxyphenyl)-1-methyl-ethyl]amino]ethyl]phenoxy]acetic acid]",1000 nM,39 nM,–,–
"C[C@H](NCCc1ccc(OCC(=O)O)cc1)[C@H](O)c1ccc(O)cc1 [Compound 9, 2-[4-[2-[[(1S,2R)-2-Hydroxy-2-(4-hydroxyphenyl)-1-methylethyl]-amino]ethyl]phenoxy]acetic acid]",1300 nM,–,14 nM,1300 nM
